{
  "source": "patent US20250177269A1",
  "about": "“COMPOSITION FOR PROMOTING HAIR SPROUTING OR HAIR GROWTH CONTAINING A THYMOL ESTER-BASED COMPOUND” (AMOREPACIFIC CORPORATION, priority 2023, published 2025)",
  "test_system": "dermal papilla (DP) cells and outer root sheath (ORS) cells",
  "experiment": "\"Two-Cell Assemblage\" Assay, hair growth-promoting efficacy",
  "assay_type": "cell-based",
  "conditions": "10 ppm, 20 ppm; cultured for 5 days; vs. control",
  "method": "The hair growth-promoting efficacy of 3,4,5-trimethoxycinnamate thymol ester (Melasolv) according to the concentration (10 ppm, 20 ppm) was evaluated using “Two-Cell Assemblage” Assay (“Two-Cell Assemblage” Assay: A Simple in vitro Method for Screening Hair Growth-Promoting Compounds) (Front Cell Dev Biol. 2020 Nov. 24; 8:581528).\nThe “Two-Cell Assemblage” Assay is an evaluation method that mimics the hair growth of actual hair follicles by co-culturing dermal papilla (DP) cells and outer root sheath (ORS) cells that constitute the hair follicle. That is, the length growth of the “Two-Cell Assemblage” structure has a mechanism similar to that of the actual hair follicle growth, and is being used as a new method of evaluating hair growth-promoting efficacy.\n5,000 hair follicle dermal papilla cells were seeded on an ultra-low attachment 96-well plate to form 3D spheroids. After 24 hours, 5,000 outer root sheath cells (Kyungpook National University Industry-Academic Cooperation Foundation) were added together with the test substance to create a “Two-Cell assemblage” structure and cultured for 5 days under 37° C., 5% CO2 conditions. After culturing for 5 days, the length growth was measured using a microscope (OLYMPUS, SZX16) and shown in the Figure (* p<0.05, ** p<0.01, *** p<0.001 vs. control).",
  "data": [
    {"smiles": "COc1cc(/C=C/C(=O)Oc2cc(C)ccc2C(C)C)cc(OC)c1OC", "note": "[Melasolv, (5-methyl-2-propan-2-ylphenyl) (E)-3-(3,4,5-trimethoxyphenyl) prop-2-enoate]", "values": [
      {"measurement": "length growth of the \"Two-Cell Assemblage\" structure (hair growth efficacy)", "result": "significant level of length growth-promoting efficacy"}
    ]}
  ]
}
